Test results taken from patent US10730863B2, “Bridged bicyclic compounds as farnesoid X receptor modulators” (BRISTOL-MYERS SQUIBB COMPANY, priority 2017, dated 2020).

Target: FXR (Homo sapiens (Human), UniProt Q96RI1)
Assay: FXR EC50 (FXR agonist activity reported with each example)
Format: cell-based

Chain of FXR (Q96RI1 262-486): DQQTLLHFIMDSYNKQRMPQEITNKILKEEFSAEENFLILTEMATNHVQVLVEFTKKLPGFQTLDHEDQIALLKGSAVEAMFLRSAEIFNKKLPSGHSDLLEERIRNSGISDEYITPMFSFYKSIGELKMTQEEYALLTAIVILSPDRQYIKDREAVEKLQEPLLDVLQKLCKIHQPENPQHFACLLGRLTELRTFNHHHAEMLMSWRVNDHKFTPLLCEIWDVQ

| Compound | EC50 [nM] |
| --- | --- |
| O=C(O)c1ccc2nc(C34CCC(COCc5c(-c6c(Cl)cccc6Cl)noc5C5CC5)(CC3)CC4)oc2c1 [Example 178, 2-(4-(((5-cyclopropyl-3-(2,6-dichlorophenyl)isoxazol-4-yl)methoxy)methyl)bicyclo[2.2.2]octan-1-yl)benzo[d]oxazole-6-carboxylic acid] | 910 |
| CC(C)(C(N)=O)c1ccc(C23CCC(/C=C/c4c(-c5ccccc5C(F)(F)F)noc4C4CC4)(CC2)CO3)cc1 [Example 480, (E)-2-(4-(4-(2-(5-cyclopropyl-3-(2-(trifluoromethyl)phenyl)isoxazol-4-yl)vinyl)-2-oxabicyclo[2.2.2]octan-1-yl)phenyl)-2-methylpropanamide] | 1000 |
| O=C(O)c1ccc(F)c(-c2noc(C34CCC(OCc5c(-c6c(Cl)cncc6Cl)noc5C5CC5)(CC3)CC4)n2)c1 [Example 461, 3-(5-(4-((5-cyclopropyl-3-(3,5-dichloropyridin-4-yl)isoxazol-4-yl)methoxy)bicyclo[2.2.2]octan-1-yl)-1,2,4-oxadiazol-3-yl)-4-fluorobenzoic acid] | 190 |
| O=C(O)c1cc(OC2COC2)c2cc(OCC34CCC(OCc5c(-c6c(Cl)cncc6Cl)noc5C5CC5)(CC3)CC4)ccc2n1 [Example 361] | 71 |
| COc1ccc(-c2noc(C34CCC(/C=C/c5c(-c6c(Cl)cncc6Cl)noc5C5CC5)(CC3)OC4)n2)cc1C(=O)O [Example 496, (E)-5-(5-(1-(2-(5-cyclopropyl-3-(3,5-dichloropyridin-4-yl)isoxazol-4-yl)vinyl)-2-oxabicyclo[2.2.2]octan-4-yl)-1,2,4-oxadiazol-3-yl)-2-methoxybenzoic acid] | 1000 |
| Cc1nc(C23CCC(/C=C/c4c(-c5c(Cl)cncc5Cl)noc4C4CC4)(CC2)CC3)sc1C(=O)O [Example 509, (E)-2-(4-(2-(5-cyclopropyl-3-(3,5-dichloropyridin-4-yl)isoxazol-4-yl)vinyl)bicyclo[2.2.2]octan-1-yl)-4-methylthiazole-5-carboxylic acid] | 40 |
| O=C(O)Cc1ccccc1OCC12CCC(OCc3c(-c4c(Cl)cccc4Cl)noc3C3CC3)(CC1)CC2 [Example 116, 2-(2-((4-((5-cyclopropyl-3-(2,6-dichlorophenyl)isoxazol-4-yl)methoxy)bicyclo[2.2.2]octan-1-yl)methoxy)phenyl)acetic acid] | 900 |
| COc1cncc(Cl)c1-c1noc(C2CC2)c1COC12CCC(COc3cc(C)c(C(=O)O)cn3)(CC1)CC2 [Example 119, 6-((4-((3-(3-chloro-5-methoxypyridin-4-yl)-5-cyclopropylisoxazol-4-yl)methoxy)bicyclo[2.2.2]octan-1-yl)methoxy)-4-methylnicotinic acid] | 120 |
| CC(Oc1ccc(OCC23CCC(OCc4c(-c5c(Cl)cncc5Cl)noc4C4CC4)(CC2)CC3)cc1)C(=O)O (stereo not shown) [Example 341] | 1500 |
| COC(=O)c1ccc(-c2noc(C34CCC(COCc5c(-c6ccccc6OC(F)(F)F)noc5C5CC5)(CC3)CC4)n2)cc1 [Example 155] | 2500 |
| COc1cc(C(=O)O)c(F)c(-c2noc(C34CCC(OCc5c(-c6c(Cl)cncc6Cl)noc5C5CC5)(CC3)CC4)n2)c1 [Example 244, 3-(5-(4-((5-cyclopropyl-3-(3,5-dichloropyridin-4-yl)isoxazol-4-yl)methoxy)bicyclo[2.2.2]octan-1-yl)-1,2,4-oxadiazol-3-yl)-2-fluoro-5-methoxybenzoic acid] | 230 |
| O=C(O)C1(c2cccc(C(O)C34CCC(OCc5c(-c6c(Cl)cccc6Cl)noc5C5CC5)(CC3)CC4)c2)CC1 (stereo not shown) [Example 129, 1-(3-((4-((5-cyclopropyl-3-(2,6-dichlorophenyl)isoxazol-4-yl)methoxy)bicyclo[2.2.2]octan-1-yl)(hydroxy)methyl)phenyl)cyclopropane-1-carboxylic acid] | 3000 |
| O=C(O)c1cc(-c2noc(C34CCC(OCc5c(-c6ccccc6OC(F)(F)F)noc5C5CC5)(CC3)CC4)n2)ccn1 [Example 49] | 1200 |
| COc1ccc(C(=O)O)cc1-c1noc(C23CCC(COCc4c(-c5c(Cl)cncc5Cl)noc4C4CC4)(CC2)CC3)n1 [Example 487, 3-(5-(4-(((5-cyclopropyl-3-(3,5-dichloropyridin-4-yl)isoxazol-4-yl)methoxy)methyl)bicyclo[2.2.2]octan-1-yl)-1,2,4-oxadiazol-3-yl)-4-methoxybenzoic acid] | 5400 |
| O=C(O)c1cc(OCC23CCC(OCc4c(-c5ccccc5C(F)(F)F)noc4C4CC4)(CC2)CC3)ccc1F [Example 290] | 260 |
| CCCc1cc(C(=O)O)nc2ccc(OCC34CCC(OCc5c(-c6c(Cl)cncc6Cl)noc5C5CC5)(CC3)CC4)cc12 [Example 338, 6-((4-((5-cyclopropyl-3-(3,5-dichloropyridin-4-yl)isoxazol-4-yl)methoxy)bicyclo[2.2.2]octan-1-yl)methoxy)-4-propylquinoline-2-carboxylic acid] | 17 |
| CC(C)(C(=O)O)c1ccc(C23CCC(/C=C/c4c(-c5ccccc5C(F)(F)F)noc4C4CC4)(CC2)CO3)cc1 [Example 477, (E)-2-(4-(4-(2-(5-cyclopropyl-3-(2-(trifluoromethyl)phenyl)isoxazol-4-yl)vinyl)-2-oxabicyclo[2.2.2]octan-1-yl)phenyl)-2-methylpropanoic acid] | 1500 |
| O=C(O)c1cccc(-c2noc(C34CCC(OCc5c(-c6ccccc6OC(F)(F)F)noc5C5CC5)(CC3)CC4)n2)c1 [Example 1, 3-(5-(4-((5-cyclopropyl-3-(2-(trifluoromethoxy)phenyl)isoxazol-4-yl)methoxy)bicyclo[2.2.2]octan-1-yl)-1,2,4-oxadiazol-3-yl)benzoic acid] | 110 |
| O=C(O)c1cc(C(F)(F)F)cc2nc(C34CCC(OCc5c(C(C6CC6)C6CC6)noc5C5CC5)(CC3)CC4)ccc12 [Example 423, 2-(4-((5-cyclopropyl-3-(dicyclopropylmethyl)isoxazol-4-yl)methoxy)bicyclo[2.2.2]octan-1-yl)-7-(trifluoromethyl)quinoline-5-carboxylic acid] | 67 |
| O=C(O)c1ncc(OCC23CCC(OCc4c(-c5c(Cl)cncc5Cl)noc4C4CC4)(CC2)CC3)cc1OCC1CC1 [Example 337] | 27 |
| O=C(O)c1cc(OC2CCC2)c2cc(OCC34CCC(OCc5c(-c6c(Cl)cncc6Cl)noc5C5CC5)(CC3)CC4)cc(F)c2n1 [Example 308, 4-cyclobutoxy-6-((4-((5-cyclopropyl-3-(3,5-dichloropyridin-4-yl)isoxazol-4-yl)methoxy)bicyclo[2.2.2]octan-1-yl)methoxy)-8-fluoroquinoline-2-carboxylic acid] | 12 |
| O=C(O)c1cc(O)c2cc(OCC34CCC(OCc5c(-c6c(Cl)cncc6Cl)noc5C5CC5)(CC3)CC4)ccc2n1 [Example 327, 6-((4-((5-cyclopropyl-3-(3,5-dichloropyridin-4-yl)isoxazol-4-yl)methoxy)bicyclo[2.2.2]octan-1-yl)methoxy)-4-hydroxyquinoline-2-carboxylic acid] | 170 |
| Cc1cc(C(=O)O)nc2c(F)cc(OCC34CCC(OCc5c(-c6c(Cl)cncc6Cl)noc5C5CC5)(CC3)CC4)cc12 [Example 307, 6-((4-((5-cyclopropyl-3-(3,5-dichloropyridin-4-yl)isoxazol-4-yl)methoxy)bicyclo[2.2.2]octan-1-yl)methoxy)-8-fluoro-4-methylquinoline-2-carboxylic acid] | 20 |
| Cc1cc(OCC23CCC(OCc4c(-c5c(Cl)cncc5Cl)noc4C4CC4)(CC2)CC3)cnc1C(=O)O [Example 348, 5-((4-((5-cyclopropyl-3-(3,5-dichloropyridin-4-yl)isoxazol-4-yl)methoxy)bicyclo[2.2.2]octan-1-yl)methoxy)-3-methylpicolinic acid] | 59 |
| 3-((4-((5-cyclopropyl-3-(2- trifluoromethoxy)phenyl)isoxazol-4- yl)methoxy)bicyclo[2.2.2]octan-1- yl)methoxy)nicotinic acid [Example 78] | 1400 |
| CN(C)c1cc(C(=O)O)nc2ccc(OCC34CCC(OCc5c(-c6c(Cl)cncc6Cl)noc5C5CC5)(CC3)CC4)cc12 [Example 330] | 1500 |
| O=C(O)c1ccc2nc(OCC34CCC(OCc5c(-c6c(Cl)cncc6Cl)noc5C5CC5)(CC3)CC4)ccc2n1 [Example 298, 6-((4-((5-cyclopropyl-3-(3,5-dichloropyridin-4-yl)isoxazol-4-yl)methoxy)bicyclo[2.2.2]octan-1-yl)methoxy)-1,5-naphthyridine-2-carboxylic acid] | 63 |
| COc1cc(OCC23CCC(OCc4c(-c5c(Cl)cncc5Cl)noc4C4CC4)(CC2)CC3)ncc1C(=O)O [Example 301, 6-((4-((5-cyclopropyl-3-(3,5-dichloropyridin-4-yl)isoxazol-4-yl)methoxy)bicyclo[2.2.2]octan-1-yl)methoxy)-4-methoxynicotinic acid] | 42 |
